We go through one compound from patent US20160067211A1, “PHARMACEUTICAL COMPOSITION” (Eberhard Karls Universitaet Tuebingen Medizinische Fakultaet, priority 2013, published 2016).

Data set [1] has as its system chicken embryos. The experiment in a line: Embryo toxicity testing in chicken embryos. The data set is classed as in vivo. To be noted: 100 μM in ethanol and PBS, after 72 hours. As for the experimental part: FIG. 11: 6-PN and 8-PN reduce proliferation and invasion of BLM and LOXIMVI melanoma cells in human epidermal skin reconstructs and induce little embryo toxicity. (A) BLM melanoma cells and keratinocytes were seeded on top of a collagen matrix populated by fibroblasts. After 16 days a keratinizing stratified epithelium with a rudimentary corium is formed. […] (B) Similar results were obtained for LOXIMVI melanoma cells under the same treatment conditions. Only nests of dead, MIB1 negative LOXIMVI cells were detected after treatment with the PNs. (C) Chicken embryos stage 13HH (corresponding to 6 human gestational weeks) were exposed to DMSO as control, 100 μM 6-PN or 100 μM 8-PN to determine LD50 values. Survival rates after 24 hours, 48 hours, and 72 hours are depicted in a Kaplan-Meier plot.
Fertilized eggs of leghorn chickens (Gallus gallus domesticus) were incubated at 38° C. in a temperature-controlled, humidified brooder. […]
Due to the detected cytotoxic effects on cancer cells and of melanocytes in vitro, the determination of in vivo embryotoxicity was of great interest. To this end, 2-day chicken embryos were treated for 24, 48 and 72 hours with 100 μM 6-PN or 100 μM 8-PN to monitor survival as readout for lethal embryotoxicity (FIG. 11C). […]

In data set [2] the test system is cleaved caspase-3 in SK-MEL-28 melanoma cells. The experiment in a line: Western blot for cleaved caspase-3. To be noted: SK-MEL-28, 100 μM. The data set is classed as cell-based, human. As for the experimental part:
Western blot analysis of SK-MEL-28 melanoma cells treated with 100 μM of 6-PN, 8-PN, SAHA or TSA. EtOH and DMSO were applied as controls.
The following antibodies were used: Anti-Vinculin and Anti-Actin (1:5000, Sigma-Aldrich), Anti-Acetyl-Histon H3 (1:5000, Millipore, Billerica, USA), Anti-Caspase-3 (1:1000), Anti-AKT, Anti-pAKT, Anti-ERK, Anti-pERK, […], Anti-p70S6 Kinase, and Anti-pS6 protein (1:1000), all from Cell Signaling, Frankfurt, Germany), Anti-LC3 (1:5000, Sigma-Aldrich).
To further analyze the type of cell death induced by 6-PN and 8-PN, western blot analyses of SK-MEL-28 melanoma cells were performed 1, 2, 4, 12 and 24 hours after the treatment with 100 μM 6-PN and 8-PN. […] Upon PN treatment an inconsistent expression of oncogenic AKT and phospho-AKT (pAKT) was detected. […] Thus, there was an obvious discrepancy between the expression of pAKT and pS6P. Therefore it was first also looked for the expression of P70S6 kinase and its phosphorylated form. […] Therefore it was next asked whether the S6P could be phosphorylated by a different mechanism. In this respect, activated ERK can phosphorylate the p90 ribosomal S6 kinase (pP90). pP90 also phosphorylates the S6P (in addition to the P70S6 kinase). Since the pP70S6 kinase was absent in the used cells (SK-MEL-28 and BLM), it was hypothesized that the phosphorylation of the S6P was conducted via the pERK/pP90 pathway, independent from the P70S6 signalling. This hypothesis was supported by the parallel down-regulation of the bands for pP90 (Thr359/Ser363) and pS6P 12 hours after the treatment with 6-PN, and the reappearance of both bands after 24 hours (FIG. 8). […] The western blot experiments were repeated with BLM cells under the same treatment conditions and yielded similar results (not shown).
In general terms: A western blot detects proteins with antibodies after separation by electrophoresis.

As to `CC(C)=CCc1c(O)cc(O)c2c1OC(c1ccc(O)cc1)CC2=O` (centres unmarked) [8-PN, 5,7-Dihydroxy-2-(4-hydroxy-phenyl)-8-(3-methyl-but-2-enyl)-chroman-4-one], the embryos survived in data set [1] was 8/10. Further, the “band for cleaved caspase-3” value in data set [2] was “no additional band”.
